In US20140073634A1 (Institute For Applied Cancer Science/The University of …, priority 2012, published 2014):
pIC50: −log10 of the molar value.

Test system: 293T-HRE-GFP-luc cells
Experiment: Cell-based reporter assay for IC50 determinations (HRE-luciferase, hypoxia)
Conditions: 6 h, 6 hrs hypoxia (1% O2), luminescence
In short: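 293T-HRE-GFP-luc cells were pre-incubated with serially diluted compounds for 30 min under normoxia, then held 6 hrs in hypoxia (1% O2, 37° C). HRE-driven luciferase read by Steadylite Plus luminescence; IC50 from four-parameter logistic fit.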

COCCOc1cccc(Cn2cc(-c3noc(-c4cnc(N5CCOCC5)nc4)n3)ccc2=O)c1 [Example 242, 1-{[3-(2-methoxyethoxy)phenyl]methyl}-5-{5-[2-(morpholin-4-yl)pyrimidin-5-yl]-1,2,4-oxadiazol-3-yl}-1,2-dihydropyridin-2-one]
pIC50: > 7.00

COCCOc1cccc(Cn2cc(-c3noc(-c4cnc(N5CCC(C)(C)CC5)nc4)n3)ccc2=O)c1 [Example 243, 5-{5-[2-(4,4-dimethylpiperidin-1-yl)pyrimidin-5-yl]-1,2,4-oxadiazol-3-yl}-1-{[3-(2-methoxyethoxy)phenyl]methyl}-1,2-dihydropyridin-2-one]
pIC50: > 7.00

COCCOc1cccc(Cn2cc(-c3noc(-c4cnc(C5CC5)nc4)n3)ccc2=O)c1 [Example 244, 5-[5-(2-cyclopropylpyrimidin-5-yl)-1,2,4-oxadiazol-3-yl]-1-{[3-(2-methoxyethoxy)phenyl]methyl} 1,2-dihydropyridin-2-one]
pIC50: > 7.00

CNc1ncc(-c2nc(-c3ccc(=O)n(Cc4cccc(OCCOC)c4)c3)no2)cn1 [Example 245, 1-{[3-(2-methoxyethoxy)phenyl]methyl}-5-{5-[2-(methylamino)pyrimidin-5-yl]-1,2,4-oxadiazol-3-yl}-1,2-dihydropyridin-2-one]
pIC50: 6.00 to 7.00

COCCOc1cccc(Cn2cc(-c3noc(-c4cnc(NCC(C)C)nc4)n3)ccc2=O)c1 [Example 246]
pIC50: > 7.00

COCCOc1cccc(Cn2cc(-c3noc(-c4cnc(NCC(C)(C)C)nc4)n3)ccc2=O)c1 [Example 247, 5-(5-{2-[(2,2-dimethylpropyl)amino]pyrimidin-5-yl}-1,2,4-oxadiazol-3-yl)-1-{[3-(2-methoxyethoxy)phenyl]methyl}-1,2-dihydropyridin-2-one]
pIC50: > 7.00

COCCOc1cccc(Cn2cc(-c3noc(-c4cnc(NC(C)C)nc4)n3)ccc2=O)c1 [Example 248, 1-{[3-(2-methoxyethoxy)phenyl]methyl}-5-(5-{2-[(propan-2-yl)amino]pyrimidin-5-yl}-1,2,4-oxadiazol-3-yl)-1,2-dihydropyridin-2-one]
pIC50: > 7.00

COCCOc1cccc(Cn2cc(-c3noc(-c4cnc(NC(C)(C)C)nc4)n3)ccc2=O)c1 [Example 249, 5-{5-[2-(tert-butylamino)pyrimidin-5-yl]-1,2,4-oxadiazol-3-yl}-1-{[3-(2-methoxyethoxy)phenyl]methyl}-1,2-dihydropyridin-2-one]
pIC50: > 7.00

COCCOc1cccc(Cn2cc(-c3noc(-c4cnc(N5CCS(=O)(=O)CC5)nc4)n3)ccc2=O)c1 [Example 250, 5-(5-(2-(1,1-dioxidothiomorpholino)pyrimidin-5-yl)-1,2,4-oxadiazol-3-yl)-1-(3-(2-methoxyethoxy)benzyl)pyridin-2(1H)-one]
pIC50: 6.00 to 7.00

O=c1ccc(-c2cc(-c3ccc(OC(F)(F)F)cc3)no2)cn1Cc1cccc(N2CCS(=O)(=O)CC2)c1 [Example 251, 1-(3-(1,1-dioxidothiomorpholino)benzyl)-5-(3-(4-(trifluoromethoxy)phenyl)isoxazol-5-yl)pyridin-2(1H)-one]
pIC50: > 7.00

O=c1ccc(-c2cc(-c3ccc(OC(F)(F)F)cc3)no2)cn1Cc1cccc(N2CCCS2(=O)=O)c1 [Example 252, 1-(3-(1,1-dioxidoisothiazolidin-2-yl)benzyl)-5-(3-(4-(trifluoromethoxy)phenyl)isoxazol-5-yl)pyridin-2(1H)-one]
pIC50: > 7.00

O=c1ccc(-c2cc(-c3ccc(OC(F)(F)F)cc3)no2)cn1Cc1cccc(NC2CCS(=O)(=O)CC2)c1 [Example 253, 1-(3-((1,1-dioxidotetrahydro-2H-thiopyran-4-yl)amino)benzyl)-5-(3-(4-(trifluoromethoxy)phenyl)isoxazol-5-yl)pyridin-2(1H)-one]
pIC50: > 7.00

O=c1ccc(-c2cc(-c3ccc(OC(F)(F)F)cc3)no2)cn1Cc1cccc(NC2CCCS(=O)(=O)C2)c1 (stereo not drawn) [Example 254, 1-(3-((1,1-dioxidotetrahydro-2H-thiopyran-3-yl)amino)benzyl)-5-(3-(4-(trifluoromethoxy)phenyl)isoxazol-5-yl)pyridin-2(1H)-one]
pIC50: > 7.00

CC(C)c1ccc(-c2cc(-c3ccc(=O)n(Cc4cccc(N5CCC(S(C)(=O)=O)CC5)c4)c3)no2)cc1 [Example 255, 5-(5-(4-isopropylphenyl)isoxazol-3-yl)-1-(3-(4-(methylsulfonyl)piperidin-1-yl)benzyl)pyridin-2(1H)-one]
pIC50: > 7.00

COCCOc1cccc(Cn2cc(-c3nnc(-c4ccc(OC(F)F)cc4)o3)ccc2=O)c1 [Example 257, 5-{5-[4-(difluoromethoxy)phenyl]-1,3,4-oxadiazol-2-yl}-1-{[3-(2-methoxyethoxy)phenyl]methyl}-1,2-dihydropyridin-2-one]
pIC50: 6.00 to 7.00

COCCOc1cccc(Cn2cc(-c3nnc(-c4ccc(S(=O)(=O)C(F)(F)F)cc4)o3)ccc2=O)c1 [Example 258, 1-{[3-(2-methoxyethoxy)phenyl]methyl}-5-[5-(4-trifluoromethanesulfonylphenyl)-1,3,4-oxadiazol-2-yl]-1,2-dihydropyridin-2-one]
pIC50: 6.00 to 7.00

CS(=O)(=O)CCCOc1cccc(Cn2cc(-c3nnc(-c4ccc(S(=O)(=O)C(F)(F)F)cc4)o3)ccc2=O)c1 [Example 259, 1-{[3-(3-methanesulfonylpropoxy)phenyl]methyl}-5-[5-(4-trifluoromethanesulfonylphenyl)-1,3,4-oxadiazol-2-yl]-1,2-dihydropyridin-2-one]
pIC50: > 7.00

CC(C)(O)c1cccc(Cn2cc(-c3nnc(-c4ccc(S(=O)(=O)C(F)(F)F)cc4)o3)ccc2=O)c1 [Example 260, 1-{[3-(2-hydroxypropan-2-yl)phenyl]methyl}-5-[5-(4-trifluoromethanesulfonylphenyl)-1,3,4-oxadiazol-2-yl]-1,2-dihydropyridin-2-one]
pIC50: 6.00 to 7.00

CC(C)(O)c1cccc(Cn2cc(-c3nnc(-c4ccc(OC(F)F)cc4)o3)ccc2=O)c1 [Example 261, 5-{5-[4-(difluoromethoxy)phenyl]-1,3,4-oxadiazol-2-yl}-1-{[3-(2-hydroxypropan-2-yl)phenyl]methyl}-1,2-dihydropyridin-2-one]
pIC50: 6.00 to 7.00

CS(=O)(=O)CCCOc1cccc(Cn2cc(-c3nnc(-c4ccc(OC(F)F)cc4)o3)ccc2=O)c1 [Example 262, 5-{5-[4-(difluoromethoxy)phenyl]-1,3,4-oxadiazol-2-yl}-1-{[3-(3-methanesulfonylpropoxy)phenyl]methyl}-1,2-dihydropyridin-2-one]
pIC50: > 7.00

CC(C)Oc1ccc(-c2nnc(-c3ccc(=O)n(Cc4cccc(C(C)(C)O)c4)c3)o2)cc1 [Example 263, 1-{[3-(2-hydroxypropan-2-yl)phenyl]methyl}-5-{5-[4-(propan-2-yloxy)phenyl]-1,3,4-oxadiazol-2-yl}-1,2-dihydropyridin-2-one]
pIC50: 6.00 to 7.00

CC(C)Oc1ccc(-c2nnc(-c3ccc(=O)n(Cc4cccc(N5CCC(S(C)(=O)=O)CC5)c4)c3)o2)cc1 [Example 264, 1-{[3-[4-methanesulfonylpiperidin-1-yl)phenyl]methyl}-5-{5-[4-(propan-2-yloxy)phenyl]-1,3,4-oxadiazol-2-yl}-1,2-dihydropyridin-2-one]
pIC50: 6.00 to 7.00

COc1cccc(Cn2c(C)ccc(-c3nc(-c4ccc(OC(F)(F)F)cc4)no3)c2=O)c1 [Example 265, 1-[(3-methoxyphenyl)methyl]-6-methyl-3-{3-[4-(trifluoromethoxy)phenyl]-1,2,4-oxadiazol-5-yl}-1,2-dihydropyridin-2-one]
pIC50: 6.00 to 7.00

Cc1ccc(-c2nc(-c3ccc(OC(F)(F)F)cc3)no2)c(=O)n1Cc1cccc(OC(F)F)c1 [Example 266, 1-{[3-(difluoromethoxy)phenyl]methyl}-6-methyl-3-{3-[4-(trifluoromethoxy)phenyl]-1,2,4-oxadiazol-5-yl}-1,2-dihydropyridin-2-one]
pIC50: 6.00 to 7.00

Cc1ccc(-c2nc(-c3ccc(OC(F)(F)F)cc3)no2)c(=O)n1Cc1cccc(S(C)(=O)=O)c1 [Example 267, 1-[(3-methanesulfonylphenyl)methyl]-6-methyl-3-{3-[4-(trifluoromethoxy)phenyl]-1,2,4-oxadiazol-5-yl}-1,2-dihydropyridin-2-one]
pIC50: 6.00 to 7.00

Cc1ccc(-c2nc(-c3ccc(OC(F)(F)F)cc3)no2)c(=O)n1Cc1cccc(S(N)(=O)=O)c1 [Example 268, 3-[(6-methyl-2-oxo-3-{3-[4-(trifluoromethoxy)phenyl]-1,2,4-oxadiazol-5-yl}-1,2-dihydropyridin-1-yl)methyl]benzene-1-sulfonamide]
pIC50: 6.00 to 7.00

CN1CCN(c2cccc(Cn3cccc(-c4nc(-c5ccc(OC(F)(F)F)cc5)no4)c3=O)c2)CC1 [Example 270, 1-{[3-(4-methylpiperazin-1-yl)phenyl]methyl}-3-{3-[4-(trifluoromethoxy)phenyl]-1,2,4-oxadiazol-5-yl}-1,2-dihydropyridin-2-one]
pIC50: > 7.00
